One data set relates to A. baumannii ATCC 19606. As to the kind of experiment: MIC of more highly purified compounds (Table 3). The class given is cell-based. From the text:
(§1) MIC was further evaluated using EtOAc extracts of more highly purified Compound #1 and Compound #2. MIC of these compounds was compared to ACHN-490 (Plazomicin; an aminoglycoside effective primarily against Gram-negative bacteria), Colistin (a polymyxin antibiotic effective against most Gram-negative bacilli), and Meropenem (an ultra broad-spectrum, beta-lactam antibiotic).

The test system of the next data set is C. difficile ATCC 700057. As to the kind of experiment: MIC broth dilution assay (Table 2). The note with it: Clostridioides difficile. The class given is cell-based, Clostridium difficile. The protocol:
(§2) Stocks of test compounds and standards were diluted 1:100 to provide working stocks in each growth medium. For P. aeruginosa, S. enterica and S. aureus, eleven serial, one-half dilutions of the compounds and standards were prepared in 96-well polypropylene dilution blocks in cation-adjusted Mueller Hinton broth (CAMHB). The dilutions were transferred to 96-well assay plates. […] Bacterial suspensions were prepared and added to each well at a concentration of approximately 5×10^5 colony-forming-units per milliliter. […] At the completion of incubation the wells of each plate were evaluated visually for the presence of bacterial growth. The MIC was the concentration at which there was no growth. MICs against H. influenzae, S. pneumoniae and C. difficile were determined similarly, but dilutions were prepared directly in the 96-well assay plates and MIC parameters were as indicated below (Table 1). [table]
(In general: Dilution methods test growth across graded concentrations, often in twofold steps.)

For data set [1], the system named is S. aureus (MRSA) ATCC 33591. As to the kind of experiment: MIC of more highly purified compounds (Table 3). The class given is cell-based. The note with it: EtOAc extracts of more highly purified compounds.
From the text: as §1

A further data set relates to K. pneumoniae ATCC 43816. As to the kind of experiment: MIC of more highly purified compounds (Table 3). The class given is cell-based.
From the text: as §1

Data set [2] relates to S. enterica ATCC 14028. As to the kind of experiment: MIC of more highly purified compounds (Table 3). The class given is cell-based.
From the text: as §1

In data set [3] the test system is peripheral blood mononuclear cells (PMBC). As to the kind of experiment: in vitro cell toxicology assay. The class given is cell-based, human. Conditions: 5, 25, 50 nM. The protocol:
(§3) In vitro cell toxicology assays were performed to evaluate the effect of Compound #1 on human cells. Compound #1, dissolved in DMSO, was added to vital cultures of HeLa cells and peripheral blood mononuclear cells (PMBC) one day after the cell cultures were started. For each cell line, pure DMSO (control #1), no DMSO (control #2) and Compound #1 in one times (T1-5 nM), five times (T5-25 nM) and ten times (T10-50 nM) of the bacteria-toxic concentration was added to the cell cultures for two sets each. All ten culture flasks per cell line (2×: T1, T5, T10, […]#2) were incubated under identical conditions and simple cell counts were performed on days two, four and six while replacing the cell culture medium to maintain the concentration of Compound #1.

The subject of the next data set is HeLa cells. As to the kind of experiment: in vitro cell toxicology assay. The class given is cell-based, human. The protocol: as §3
Data set [4] can be described thus: radio-HPLC of C. thermocellum culture fed 14C-labelled amino acids (water solubility of metabolite). The class given is physicochemical. Conditions: no new peak in radio-HPLC of culture. On the procedure:
C. thermocellum was grown anaerobically in cellulose-containing medium. ^14C-labelled amino acids (^14C-L-Asp, ^14C-L-Leu and ^14C-L-Ile) were added to the culture media and radio-HPLC was performed. […] The orange suspension was centrifuged, the liquid layer separated from the cells and the DMSO was removed under reduced pressure. The final yield from this process was 14.7 mg.

Data set [5] relates to S. pneumoniae ATCC 49619. As to the kind of experiment: MIC broth dilution assay (Table 2). The class given is cell-based. Conditions: Streptococcus pneumoniae, ATCC49619, CAMHB + LHB, 20-24 h, read-out: Minimum inhibitory concentration (MIC). On the procedure:
as §2

Data set [6] concerns Pseudomonas putida (ATCC 11172). As to the kind of experiment: bacterial growth inhibition assay (cellulose disks). The class given is cell-based. The note with it: 0.85 μg on 6 mm cellulose disk. On the procedure: (§4) To evaluate the antibiotic properties of the compounds produced by the NRPS cluster, Compound #1 or Compound #2 (0.85 μg) was diluted in 2 μl DMSO and soaked onto 6 mm cellulose disks for a bacterial growth inhibition assay.

The next data set relates to Bacillus subtilis PY79. Described as above. The class given is cell-based. The note with it: 0.85 μg on 6 mm cellulose disk. The protocol:
as §4

In data set [7] the test system is Listeria grayi (ATCC 19120). The description is as above. The class given is cell-based. Conditions: 0.85 μg on 6 mm cellulose disk. On the procedure:
as §4

The test system of data set [8] is Acinetobacter baumannii (ATCC 17904). The data set is described as above. The class given is cell-based. The note with it: 0.85 μg on 6 mm cellulose disk. The protocol: as §4
The subject of another data set is E. coli (ATCC 25922). The data set is described as above. The class given is cell-based. Conditions: 0.85 μg on 6 mm cellulose disk. The protocol: as §4
In the next data set the test system is E. coli K-12. The description is as above. The class given is cell-based. Conditions: 0.85 μg on 6 mm cellulose disk. The protocol: as §4
Data set [9] concerns Staphylococcus aureus (ATCC 2913). Described as above. The class given is cell-based. Conditions: 0.85 μg on 6 mm cellulose disk. On the procedure: as §4
Another data set has as its system P. aeruginosa ATCC 27853. As to the kind of experiment: MIC broth dilution assay (Table 2). The class given is cell-based. The note with it: Pseudomonas aeruginosa, ATCC27853, CAMHB, 16-20 h, 35° C., read-out: Minimum inhibitory concentration (MIC). The protocol: (§5) Stocks of test compounds and standards were diluted 1:100 to provide working stocks in each growth medium. For P. aeruginosa, S. enterica and S. aureus, eleven serial, one-half dilutions of the compounds and standards were prepared in 96-well polypropylene dilution blocks in cation-adjusted Mueller Hinton broth (CAMHB). The dilutions were transferred to 96-well assay plates. […] Bacterial suspensions were prepared and added to each well at a concentration of approximately 5×10^5 colony-forming-units per milliliter. The inoculated plates were incubated for 16-20 hours at 35±1° C. At the completion of incubation the wells of each plate were evaluated visually for the presence of bacterial growth. The MIC was the concentration at which there was no growth.

The test system of data set [10] is S. enterica ATCC 14028. As to the kind of experiment: MIC broth dilution assay (Table 2). The class given is cell-based. The note with it: Salmonella enterica, ATCC14028, CAMHB, 16-20 h, 35° C., read-out: Minimum inhibitory concentration (MIC). On the procedure:
as §5

Data set [11] has as its system H. influenzae ATCC 49247. As to the kind of experiment: MIC broth dilution assay (Table 2). The class given is cell-based. Conditions: ATCC49247, Haemophilus Test Medium Broth, 20-24 h, read-out: Minimum inhibitory concentration (MIC). The protocol: as §5, with “The inoculated plates were incubated for 16-20 hours at 35±1° C.” left out
Data set [12] can be described thus: Maximum Tolerated Dose (MTD) study. Conditions: CD-1 mice; subcutaneous 20, 40 or 80 mg/kg; observed 1 hour, 24 hours and 48 hours. The class given is in vivo. On the procedure: MTD studies were performed for Compound #1, Compound #2 and Compound #3. CD-1 mice, 6-8 weeks of age, were used for these studies. Groups of three mice were injected subcutaneously with 20 mg/kg, 40 mg/kg or 80 mg/kg of Compound #1, Compound #2 or Compound #3 Animals were observed 1 hour, 24 hours and 48 hours after administration of compound.

The subject of another data set is C. difficile ATCC 70057. As to the kind of experiment: MIC of more highly purified compounds (Table 3). The note with it: Clostridioides difficile, ATCC70057, EtOAc extracts of more highly purified compounds. The class given is cell-based.
From the text: as §1

Data set [13] deals with S. pneumoniae ATCC 49619. As to the kind of experiment: MIC of more highly purified compounds (Table 3). The class given is cell-based. Conditions: Streptococcus pneumoniae, ATCC49619, EtOAc extracts of more highly purified compounds.
From the text: as §1

Data set [14] concerns H. influenzae ATCC 49247. As to the kind of experiment: MIC of more highly purified compounds (Table 3). Conditions: Haemophilus influenzae, ATCC49247, EtOAc extracts of more highly purified compounds. The class given is cell-based.
From the text: as §1

Where [15] appears, read: Acinetobacter baumannii, ATCC19606, EtOAc extracts of more highly purified compounds, read-out: MIC.
Setting [16] is: EtOAc extracts of more highly purified compounds.
Setting [17] is: Staphylococcus aureus, read-out: MIC.
Setting [18] is: Salmonella enterica, ATCC14028, EtOAc extracts of more highly purified compounds, read-out: MIC.

≈ marks a conversion by molar mass, not a printed value. Counter-ions that a name gives are not always drawn. Like-named read-outs stand apart in the source and are kept apart here. Bounds are passed on as bounds.

Regarding `CN[C@@H]1[C@@H](O)[C@@H](O[C@@H]2[C@@H](O)[C@H](O[C@H]3OC(CNCCO)=CC[C@H]3N)[C@@H](N)C[C@H]2NC(=O)[C@@H](O)CCN)OC[C@]1(C)O` [ACHN-490, Plazomicin], the MIC with A. baumannii ATCC 19606 (setting [15]) amounted to 8 µg/mL.
Turning to `CN[C@H](CC(C)C)C(=O)N[C@H]1C(=O)N[C@@H](CC(N)=O)C(=O)N[C@H]2C(=O)N[C@H]3C(=O)N[C@H](C(=O)N[C@H](C(=O)O)c4cc(O)cc(O)c4-c4cc3ccc4O)[C@H](O)c3ccc(c(Cl)c3)Oc3cc2cc(c3O[C@@H]2O[C@H](CO)[C@@H](O)[C@H](O)[C@H]2O[C@H]2C[C@](C)(N)[C@H](O)[C@H](C)O2)Oc2ccc(cc2Cl)[C@H]1O` [VAN, vancomycin hydrochloride, reference compound], in the data set on C. difficile ATCC 700057 (ATCC700057, read-out: Minimum inhibitory concentration (MIC)), the MIC was 0.25 µg/mL.
On to Colistin, for which the MIC is 32 µg/mL in data set [1], more than 32 µg/mL with A. baumannii ATCC 19606 (setting [16]), 0.12 µg/mL with K. pneumoniae ATCC 43816 (setting [16]) and more than 32 µg/mL in the data set with S. enterica ATCC 14028 [2] (setting [16]).
As to `CCC(C)C1N[C@@H]2OC[C@H](OC(=O)C(CC=O)NC1=O)[C@H](O[C@@H]1OC[C@@H](O)[C@H](O)[C@@H]1O)[C@@H]2O` (stereo partly shown) [Compound #1], the “changes in physical appearance of cell line” value is reported as “no changes in physical appearance” in [3] and “no changes in physical appearance” in the data set on HeLa cells (5, 25, 50 nM). Also, the pyrogenic reactions result is on record as “No pyrogenic reactions” in data set [3] and “No pyrogenic reactions” with HeLa cells (5, 25, 50 nM). For the same compound, the “variation of death rates, treated vs untreated cell cultures” value in data set [3] (cell counts on days two, four and six) is “less than 5%”; with HeLa cells (5, 25, 50 nM, cell counts on days two, four and six) it was “less than 5%”. Also, in the data set on HeLa cells (T10 (50 nM)), the proliferation rate entry is given as “slightly reduced”. Also, the MIC in the data set on C. difficile ATCC 700057 (ATCC700057, C. difficile ATCC 700057, Supplemented Brucella Broth + LHB, anaerobic, 46-48 h, read-out: Minimum inhibitory concentration (MIC)) was 32 µg/mL; with S. pneumoniae ATCC 49619 [5], 64 µg/mL; in the data set with P. aeruginosa ATCC 27853 it was more than 128 µg/mL; with S. enterica ATCC 14028 [10], more than 128 µg/mL; in the data set with H. influenzae ATCC 49247 [11], 2 µg/mL (≈ 4.2 µM); in [1] (setting [17]), 16 µg/mL. In addition, the MIC is 16 µg/mL in the data set on C. difficile ATCC 70057; 8 µg/mL in the data set on A. baumannii ATCC 19606 (setting [15]); 8 µg/mL with K. pneumoniae ATCC 43816 (Klebsiella pneumoniae, ATCC43816, EtOAc extracts of more highly purified compounds, read-out: MIC); 16 µg/mL in the data set on S. pneumoniae ATCC 49619 [13]; 0.5 µg/mL with H. influenzae ATCC 49247 [14]; 16 µg/mL with S. enterica ATCC 14028 [2] (setting [18]). In [4], the water solubility result is reported as “water insoluble”. In addition, the bacterial growth inhibition result (in data set [6]; in the data set with Bacillus subtilis PY79; in [7]; in data set [8]; in the data set with E. coli (ATCC 25922); in the data set with E. coli K-12) was “significantly inhibited bacterial growth” each time. The bacterial growth inhibition entry in [9] is “significantly inhibited bacterial growth”. The “signs of illness (MTD study)” value in data set [12] is “No signs of illness”.
Take `C[C@@H](O)[C@H]1C(=O)N2C(C(=O)O)=C(S[C@@H]3CN[C@H](C(=O)N(C)C)C3)[C@H](C)[C@H]12` [Meropenem]: the MIC in [1] (setting [17]) is more than 16 µg/mL; with A. baumannii ATCC 19606 (setting [15]), 1 µg/mL; with S. enterica ATCC 14028 [2] (setting [18]) it was more than 16 µg/mL.

(Values after patent US9382294B2, “Broad spectrum antibiotic compounds and use thereof” (Los Alamos National Security, LLC, priority 2013, dated 2016).)
